Measured values reported in patent publication US20100311714A1, “1H-IMIDAZO[4,5-c]QUINOLINONE COMPOUNDS” (priority 2009, published 2010).

Tests used:
[1] = tested on: PKB Ser473 phosphorylation in Rat1-myr-HA-p110 delta cells; experiment: Reverse protein array, PKB Ser473 phosphorylation in Rat1-myr-HA-p110 delta cells; assay type: cell-based; details: Rattus norvegicus, 0.5 h, 30 minutes compound incubation, read-out: p-PKB/IC50_delta
[2] = tested on: PKB Ser473 phosphorylation in Rat1-myr-HA-p110 beta cells; experiment: Reverse protein array, PKB Ser473 phosphorylation in Rat1-myr-HA-p110 beta cells; assay type: cell-based; details: Rattus norvegicus, 0.5 h, 30 minutes compound incubation, read-out: p-PKB/IC50_beta

Row | Compound | IC50 [1] | IC50 [2]
1 | CNc1ncc(-c2ccc3ncc4c(c3c2)n(-c2ccc(C)nc2C)c(=O)n4C)cn1 [Example 14.4, 1-(2,6-Dimethyl-pyridin-3-yl)-3-methyl-8-(2-methylamino-pyrimidin-5-yl)-1,3-dihydro-imidazo[4,5-c]quinolin-2-one] | 0.0326 µM | 0.0242 µM
2 | Cc1ncccc1-n1c(=O)n(C)c2cnc3ccc(-c4cnc5c(ccn5C)c4)cc3c21 [Example 2.14, 3-Methyl-1-(2-methyl-pyridin-3-yl)-8-(1-methyl-1H-pyrrolo[2,3-b]pyridin-5-yl)-1,3-dihydro-imidazo[4,5-c]quinolin-2-one] | 0.0617 µM | 0.0131 µM
3 | CNc1ncc(-c2ccc3ncc4c(c3c2)n(-c2ccc(F)nc2C)c(=O)n4C)cc1F [Example 7.12, 8-(5-Fluoro-6-methylamino-pyridin-3-yl)-1-(6-fluoro-2-methyl-pyridin-3-yl)-3-methyl-1,3-dihydro-imidazo[4,5-c]quinolin-2-one] | 0.0978 µM | 0.0135 µM
4 | CNc1cc(-c2ccc3ncc4c(c3c2)n(-c2ccc(N(C)C)nc2C)c(=O)n4C)cnc1C [Example 19.2, 1-(6-Dimethylamino-2-methyl-pyridin-3-yl)-3-methyl-8-(6-methyl-5-methylamino-pyridin-3-yl)-1,3-dihydro-imidazo[4,5-c]quinolin-2-one] | < 0.00457 µM | < 0.00457 µM
5 | COCCN(C)c1ccc(-n2c(=O)n(C)c3cnc4ccc(-c5cnc(CO)c(OC)c5)cc4c32)c(C)n1 [Example 15.9, 8-(6-Hydroxymethyl-5-methoxy-pyridin-3-yl)-1-{6-[(2-methoxy-ethyl)-methyl-amino]-2-methyl-pyridin-3-yl}-3-methyl-1,3-dihydro-imidazo[4,5-c]quinolin-2-one] | 0.0388 µM | 0.0404 µM
6 | CNc1ncc(-c2ccc3ncc4c(c3c2)n(-c2cnc(F)cc2C)c(=O)n4C)cn1 [Example 16.3, 1-(6-Fluoro-4-methyl-pyridin-3-yl)-3-methyl-8-(2-methylamino-pyrimidin-5-yl)-1,3-dihydro-imidazo[4,5-c]quinolin-2-one] | 0.304 µM | 0.302 µM
7 | Cc1cc(F)ncc1-n1c(=O)n(C)c2cnc3ccc(-c4cnc5c(ccn5C)c4)cc3c21 [Example 16.5, 1-(6-Fluoro-4-methyl-pyridin-3-yl)-3-methyl-8-(1-methyl-1H-pyrrolo[2,3-b]pyridin-5-yl)-1,3-dihydro-imidazo[4,5-c]quinolin-2-one] | 0.407 µM | –
8 | COc1ccc(-n2c(=O)n(C)c3cnc4ccc(-c5ccc6nccn6c5)cc4c32)c(OC)n1 [Example 8.10, 1-(2,6-Dimethoxy-pyridin-3-yl)-8-imidazo[1,2-a]pyridin-6-yl-3-methyl-1,3-dihydro-imidazo[4,5-c]quinolin-2-one] | 0.412 µM | –
9 | Cc1ccc(-n2c(=O)n(C)c3cnc4ccc(-c5cnc(N(C)C)nc5)cc4c32)c(C)n1 [Example 14.3, 8-(2-Dimethylamino-pyrimidin-5-yl)-1-(2,6-dimethyl-pyridin-3-yl)-3-methyl-1,3-dihydro-imidazo[4,5-c]quinolin-2-one] | 0.122 µM | 0.0403 µM
10 | CCOc1ccc(-c2ccc3ncc4c(c3c2)n(-c2ccc(OCCOC)nc2C)c(=O)n4C)cn1 [Example 13.1, 8-(6-Ethoxy-pyridin-3-yl)-1-[6-(2-methoxy-ethoxy)-2-methyl-pyridin-3-yl]-3-methyl-1,3-dihydro-imidazo[4,5-c]quinolin-2-one] | 0.113 µM | 0.0157 µM
11 | CCOCc1cc(-c2ccc3ncc4c(c3c2)n(-c2ccc(F)nc2C)c(=O)n4C)cnc1N [Example 7.15, 8-(6-Amino-5-ethoxymethyl-pyridin-3-yl)-1-(6-fluoro-2-methyl-pyridin-3-yl)-3-methyl-1,3-dihydro-imidazo[4,5-c]quinolin-2-one] | 0.172 µM | 0.0506 µM
12 | COCCOc1ccc(-n2c(=O)n(C)c3cnc4ccc(-c5cnc(N)c(C(F)(F)F)c5)cc4c32)c(C)n1 [Example 13.2, 8-(6-Amino-5-trifluoromethyl-pyridin-3-yl)-1-[6-(2-methoxy-ethoxy)-2-methyl-pyridin-3-yl]-3-methyl-1,3-dihydro-imidazo[4,5-c]quinolin-2-one] | 0.0294 µM | 0.0053 µM
13 | CCNc1cc(-c2ccc3ncc4c(c3c2)n(-c2ccc(C)nc2C)c(=O)n4C)cnc1C [Example 14.6, 1-(2,6-Dimethyl-pyridin-3-yl)-8-(5-ethylamino-6-methyl-pyridin-3-yl)-3-methyl-1,3-dihydro-imidazo[4,5-c]quinolin-2-one] | < 0.00457 µM | 0.0081 µM
14 | CNc1cc(-c2ccc3ncc4c(c3c2)n(-c2ccc(C(F)(F)F)nc2C)c(=O)n4C)cnc1CO [Example 33.2, 8-(6-Hydroxymethyl-5-methylamino-pyridin-3-yl)-3-methyl-1-(2-methyl-6-trifluoromethyl-pyridin-3-yl)-1,3-dihydro-imidazo[4,5-c]quinolin-2-one] | 0.0282 µM | < 0.00447 µM
15 | CNc1cc(-c2ccc3ncc4c(c3c2)n(-c2ccc(F)nc2C)c(=O)n4C)cnc1CO [Example 7.11, 1-(6-Fluoro-2-methyl-pyridin-3-yl)-8-(6-hydroxymethyl-5-methylamino-pyridin-3-yl)-3-methyl-1,3-dihydro-imidazo[4,5-c]quinolin-2-one] | 0.0171 µM | 0.0158 µM
16 | CCNc1cc(-c2ccc3ncc4c(c3c2)n(-c2ccc(F)nc2C)c(=O)n4C)cnc1CO [Example 7.9, 8-(5-Ethylamino-6-hydroxymethyl-pyridin-3-yl)-1-(6-fluoro-2-methyl-pyridin-3-yl)-3-methyl-1,3-dihydro-imidazo[4,5-c]quinolin-2-one] | 0.0415 µM | 0.01 µM
17 | COc1nc(N2CCNCC2)ccc1-n1c(=O)n(C)c2cnc3ccc(-c4cnc(N(C)C)nc4)cc3c21 [Example 9.4, 8-(2-Dimethylamino-pyrimidin-5-yl)-1-(2-methoxy-6-piperazin-1-yl-pyridin-3-yl)-3-methyl-1,3-dihydro-imidazo[4,5-c]quinolin-2-one] | 0.0402 µM | 0.0196 µM
18 | CCNc1cc(-c2ccc3ncc4c(c3c2)n(-c2cnc(F)cc2C)c(=O)n4C)cnc1C [Example 16.2, 8-(5-Ethylamino-6-methyl-pyridin-3-yl)-1-(6-fluoro-4-methyl-pyridin-3-yl)-3-methyl-1,3-dihydro-imidazo[4,5-c]quinolin-2-one] | 0.0633 µM | 0.0783 µM
19 | Cc1nc(N2CC(F)(F)C2)ccc1-n1c(=O)n(C)c2cnc3ccc(-c4cncc(C(C)(C)O)c4)cc3c21 [Example 24.2, 1-[6-(3,3-Difluoro-azetidin-1-yl)-2-methyl-pyridin-3-yl]-8-[5-(1-hydroxy-1-methyl-ethyl)-pyridin-3-yl]-3-methyl-1,3-dihydro-imidazo[4,5-c]quinolin-2-one] | 0.03 µM | 0.0307 µM
20 | COc1ccc(-c2ccc3ncc4c(c3c2)n(-c2cccnc2OC)c(=O)n4C)cn1 [Example 1.1, 1-(2-Methoxy-pyridin-3-yl)-8-(6-methoxy-pyridin-3-yl)-3-methyl-1,3-dihydro-imidazo[4,5-c]quinolin-2-one] | 0.0533 µM | 0.065 µM
21 | COCC(=O)Nc1ccc(-n2c(=O)n(C)c3cnc4ccc(-c5cncc(OC(C)C)c5)cc4c32)c(C)n1 [Example 20.5, N-{5-[8-(5-Isopropoxy-pyridin-3-yl)-3-methyl-2-oxo-2,3-dihydro-imidazo[4,5-c]quinolin-1-yl]-6-methyl-pyridin-2-yl}-2-methoxy-acetamide] | 0.352 µM | 0.167 µM
22 | COc1ccc(-c2ccc3ncc4c(c3c2)n(-c2cccnc2)c(=O)n4C)cc1OC [Example 5.2, 8-(3,4-Dimethoxy-phenyl)-3-methyl-1-pyridin-3-yl-1,3-dihydro-imidazo[4,5-c]quinolin-2-one] | 0.0743 µM | 0.0503 µM
23 | CNc1ncc(-c2ccc3ncc4c(c3c2)n(-c2ccc(N(C)CCOC)nc2C)c(=O)n4C)cn1 [Example 15.2, 1-{6-[(2-Methoxy-ethyl)-methyl-amino]-2-methyl-pyridin-3-yl}-3-methyl-8-(2-methylamino-pyrimidin-5-yl)-1,3-dihydro-imidazo[4,5-c]quinolin-2-one] | 0.0533 µM | 0.0214 µM
24 | Cc1nc(F)ccc1-n1c(=O)n(C)c2cnc3ccc(-c4cncc(N)c4)cc3c21 [Example 7.16, 8-(5-Amino-pyridin-3-yl)-1-(6-fluoro-2-methyl-pyridin-3-yl)-3-methyl-1,3-dihydro-imidazo[4,5-c]quinolin-2-one] | 0.0785 µM | 0.0233 µM
25 | CNc1ccc(-c2ccc3ncc4c(c3c2)n(-c2ccc(OCCOC)nc2C)c(=O)n4C)cn1 [Example 13.3, 1-[6-(2-Methoxy-ethoxy)-2-methyl-pyridin-3-yl]-3-methyl-8-(6-methylamino-pyridin-3-yl)-1,3-dihydro-imidazo[4,5-c]quinolin-2-one] | 0.0385 µM | < 0.00457 µM
26 | COc1ccc(-c2ccc3ncc4c(c3c2)n(-c2ncccc2C)c(=O)n4C)cn1 [Example 3.13, 8-(6-Methoxy-pyridin-3-yl)-3-methyl-1-(3-methyl-pyridin-2-yl)-1,3-dihydro-imidazo[4,5-c]quinolin-2-one] | – | 0.945 µM
27 | CCNc1cc(-c2ccc3ncc4c(c3c2)n(-c2ccc(OC)nc2Cl)c(=O)n4C)cnc1C [Example 18.1, 1-(2-Chloro-6-methoxy-pyridin-3-yl)-8-(5-ethylamino-6-methyl-pyridin-3-yl)-3-methyl-1,3-dihydro-imidazo[4,5-c]quinolin-2-one] | < 0.00457 µM | –
28 | Cc1cccnc1-n1c(=O)n(C)c2cnc3ccc(-c4cnc5ccccc5c4)cc3c21 [Example 3.8, 3-Methyl-1-(3-methyl-pyridin-2-yl)-8-quinolin-3-yl-1,3-dihydro-imidazo[4,5-c]quinolin-2-one] | – | 0.108 µM
29 | COc1ccc(-n2c(=O)n(C)c3cnc4ccc(-c5cnc(N(C)C)nc5)cc4c32)c(Cl)n1 [Example 18.3, 1-(2-Chloro-6-methoxy-pyridin-3-yl)-8-(2-dimethylamino-pyrimidin-5-yl)-3-methyl-1,3-dihydro-imidazo[4,5-c]quinolin-2-one] | 0.0907 µM | –
